pIC50: −log10 of the molar value. A value given as a limit tells only on which side of the number the result lay.

For orientation: pIC50 means the negative decadic logarithm of the IC50, by convention in mol/L.

One assay deals with recombinant human Pim-2 (Homo sapiens, UniProt Q9P1W9). As to the kind of experiment: PIM-2 assay (33P-ATP, filter plate). The format is biochemical. As to conditions: read-out: PIM2: IC50. As for the experimental part:
Test compounds dissolved and diluted in DMSO (2 μl) were added to a reaction mixture comprising 10 μl of 5× Reaction Buffer (40 mM MOPS pH 7.0, 5 mM EDTA), 10 μl of recombinant human Pim-2 solution (4 ng Pim-2 dissolved in dilution buffer (20 mM MOPS pH 7.0; EDTA 1 mM; 5% Glycerol; 0.01% Brij 35; […]; […] 2-mercaptoethanol; 1 mg/ml BSA)) and 8 ul of water. Reactions were initiated by the addition of 10 ul of ATP Solution (49% (15 mM MgCl2; 75 uM ATP) 1% ([γ-^33P]ATP: Stock 1mCi/1000; 3000Ci/mmol (Perkin Elmer)) and 10 ul of substrate peptide solution (RSRSSYPAGT, dissolved in water at a concentration of 1 mM), Reactions were maintained for 10 min at 30° C. The reactions were quenched with 100 ul of 0.75% phosphoric acid, then transferred to and filtered through a Phosphocellulose filter plate (Millipore, MSPH-N6B-50). After washing each well 4 times with 0.75% phosphoric acid, scintillation fluid (20 uL) was added to each well and the residual radioactivity was measured using a Wallac […] counter.

The target in a further assay is recombinant Pim-1 (Homo sapiens, UniProt P11309). As to the kind of experiment: Pim-1 assay (33P-ATP, filter plate). In kind it is biochemical. To be noted: read-out: PIM1: IC50. How it is done:
The following procedure was used to assay the Pim-1 kinase activity of compounds of the invention. Other methods for assaying Pim-1 and other Pim kinases, as well as methods to assay for activity against the various kinases disclosed herein are known in the art.
In a final reaction volume of 50 ul, recombinant Pim-1 (1 ng) was incubated with 12 mM MOPS pH 7.0, 0.4 mM EDTA, glycerol 1%, brij 35 0.002%, 2-mercaptoethanol 0.02%, BSA 0.2 mg/ml, 100 uM KKRNRTLTK, 10 mM MgAcetate, 15 uM ATP, [γ-^33P-ATP] (specific activity approx. […]), DMSO 4% and test inhibitor compound at the required concentration. The reaction was initiated by the addition of the magnesium ATP mixture. After 40 min incubation at 23° C., the reactions were quenched by the addition of 100 ul 0.75% Phosphoric acid, and the labeled peptide collected by filtration through a phosphocellulose filter plate. The plate was washed 4 times with 0.075% phosphoric acid (100 ul per well) and then, after the addition of scintillation fluid (20 ul per well), the counts were measured by a scintillation counter.

recombinant human Pim-2, sequence (Q9P1W9 whole entry): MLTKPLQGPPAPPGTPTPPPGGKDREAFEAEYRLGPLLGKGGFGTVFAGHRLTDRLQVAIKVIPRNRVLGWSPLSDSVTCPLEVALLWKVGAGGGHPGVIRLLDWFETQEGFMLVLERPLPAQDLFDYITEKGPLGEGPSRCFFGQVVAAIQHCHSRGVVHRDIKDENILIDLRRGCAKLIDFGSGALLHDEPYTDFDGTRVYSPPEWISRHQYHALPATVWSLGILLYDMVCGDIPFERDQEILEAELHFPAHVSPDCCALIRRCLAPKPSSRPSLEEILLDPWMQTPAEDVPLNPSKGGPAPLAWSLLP
recombinant Pim-1, sequence (P11309 whole entry): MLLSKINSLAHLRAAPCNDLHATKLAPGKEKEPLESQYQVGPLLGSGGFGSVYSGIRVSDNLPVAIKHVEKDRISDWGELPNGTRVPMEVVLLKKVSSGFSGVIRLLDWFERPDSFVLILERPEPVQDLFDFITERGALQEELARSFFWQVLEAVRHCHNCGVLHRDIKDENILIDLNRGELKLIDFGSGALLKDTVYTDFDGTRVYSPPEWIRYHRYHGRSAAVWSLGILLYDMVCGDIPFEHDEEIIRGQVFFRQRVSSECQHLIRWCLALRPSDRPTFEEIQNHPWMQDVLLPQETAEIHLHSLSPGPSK

As to `NC(=O)c1cnn2c1nc(Nc1ccccc1Cl)c1ccccc12` [Compound B, 5-(2-chlorophenylamino)pyrazolo[1,5-a]quinazoline-3-carboxamide], the pIC50 on recombinant human Pim-2 and on recombinant Pim-1 was over 6.00 each time.

The values are drawn from patent US20110065712A1, “TRICYCLIC COMPOUNDS AND PHARMACEUTICAL USES THEREOF” (CYLENE PHARMACEUTICALS , INC., priority 2009, published 2011).
